In patent US20150050734A1, “Carbon Nanotubes And Methods Of Use” (DUKE UNIVERSITY, priority 2012, published 2015):
Entries after “also recorded” stand apart in the source; their conditions may differ.

Tests used:
[1] = system: primary cortical neurons; test: Clomeleon-based ratiometric chloride imaging; format: cell-based, rat; settings: for effect on neuronal [Cl−]i: KN93 1 μM
Method: The preparation of primary cortical neurons was adapted from a previous protocol. […] Briefly, cortices were microdissected from embryonic rats (E18) or mice (E16.5).
The tissue was dissociated using papain, followed by mechanical dissociation. Cytosine arabinoside (2.5 μM) was added to cultures to inhibit the proliferation of non-neuronal cells. Cell suspension was plated at a density of 10^6 cells mL^−1 onto tissue-culture dishes. 12 mm-diameter matrix-covered glass coverslips were contained in tissue culture dishes, typically n=3.

[2] = system: KCC2; test: KCC2 immunocytochemistry / densitometry in cultured neurons; format: cell-based, rat; settings: KN93 1 μM
Method: Confocal fluorescence imaging was conducted after immunolabeling for β3-tubulin (mouse monoclonal antibody; 1:200, Iowa hybridoma bank, Iowa City, United States), and KCC2 (rabbit polyclonal antibody; Abcam; 1:200). Id.. Fluorescently labeled sections were visualized in a Zeiss LSM710 (Carl Zeiss AG, Oberkochen, Germany) confocal imaging suite with lasers tuned to the […] spectra of the secondary fluorescent antibodies (coupled to Alexa-488 and Alexa-595 dyes), as described previously. Li, J. et al. (2011) Environ Health Perspect 119:784-793.
Morphometry for confocal and light-microscopy acquired images was conducted as previously described. Yeo, M. et al. (2009) J. Neurosci 29:14652-14662.

SMILES	effect on acceleration of the chloride shift and upregulation of KCC2 ([1]; KN62 1 μM, fwCNT-cultured primary neurons)	effect on neuronal [Cl−]i ([1]; Au-cultured neurons)	effect on neuronal [Cl−]i ([1]; fwCNT-cultured neurons)	effect on KCC2 expression ([2]; Au-cultured neurons)	effect on KCC2 upregulation ([2]; fwCNT-cultured neurons)
CN([C@@H](Cc1ccc(OS(=O)(=O)c2cccc3cnccc23)cc1)C(=O)N1CCN(c2ccccc2)CC1)S(=O)(=O)c1cccc2cnccc12 [KN62]	Dependence of acceleration of the chloride shift and upregulation of KCC2				
COc1ccc(S(=O)(=O)N(CCO)c2ccccc2CN(C)C/C=C/c2ccc(Cl)cc2)cc1 [KN93]		also not on Au-cultured neurons	specific and powerful effect	modest reduction; also recorded: relative lack effect	strict dependence
